Consider one cell line from the supplement of paper PMC10307832.

Assay in all cases: relative viability (nuclei count vs DMSO), 5 days (fraction); higher = more cells survive
Compound in the test “Bortezomib + Linsitinib”: CC(C)C[C@H](NC(=O)[C@H](Cc1ccccc1)NC(=O)c1cnccn1)B(O)O [Bortezomib] + C[C@]1(O)C[C@@H](c2nc(-c3ccc4ccc(-c5ccccc5)nc4c3)c3c(N)nccn32)C1 [Linsitinib] (partner 1 µM)
The gist of the method: (§1)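 One day after seeding in 1536-well plates, lung cancer cell lines were dosed by pin tool. Dosing was either single-drug or a fixed anchor-drug dose plus five library-drug doses (not always all listed) in √10 steps. After 5 days, nuclei were stained in one fix-and-stain step and counted on 4× images, and relative viability is the nuclei count of treated wells over that of vehicle wells, given as the median of duplicate plates.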

Compound in test [1]: CC1=CC(=NN1)NC2=CC(=NC(=N2)/C=C/C3=CC=CC=C3)N4CCN(CC4)C + C[C@@H](Oc1cc(-c2cnn(C3CCNCC3)c2)cnc1N)c1c(Cl)ccc(F)c1Cl [Crizotinib] (partner 1 µM)
The gist of the method: as §1

Compound in test [2]: CC1=CC(=NN1)NC2=CC(=NC(=N2)/C=C/C3=CC=CC=C3)N4CCN(CC4)C + Cc1nc(NC(=O)N2CCC[C@H]2C(N)=O)sc1-c1ccnc(C(C)(C)C(F)(F)F)c1 [Alpelisib] (partner 2 µM)
In a few lines:
as §1

Compound in the test “Obatoclax + Crizotinib”: COC1=CC(c2cc3ccccc3[nH]2)=N/C1=C\c1[nH]c(C)cc1C [Obatoclax] + C[C@@H](Oc1cc(-c2cnn(C3CCNCC3)c2)cnc1N)c1c(Cl)ccc(F)c1Cl [Crizotinib] (partner 1 µM)
In a few lines: as §1

Regarding NCI-H650, the relative viability with Bortezomib + Linsitinib (first compound 0.000632 µM) turned out to be 0.806; with Bortezomib + Linsitinib (first compound 0.002 µM), 0.811; in the test with Bortezomib + Linsitinib (first compound 0.006325 µM), 0.338; in the test with Bortezomib + Linsitinib (first compound 0.02 µM), 0.234; in test [1] (first compound 0.08 µM) it was 0.916; in test [1] (first compound 0.253 µM) it was 0.739. The relative viability in test [1] (first compound 0.8 µM) is 0.515; in test [1] (first compound 2.53 µM) it was 0.358; in test [1] (first compound 8 µM) it was 0.188; in test [2] (first compound 0.08 µM), 1.12; in test [2] (first compound 0.253 µM), 1.19; in test [2] (first compound 0.8 µM), 1.03. For the same cell line, the relative viability in test [2] (first compound 2.53 µM) was 0.811; in test [2] (first compound 8 µM) it was 0.171; with Obatoclax + Crizotinib (first compound 0.01 µM) it was 0.717; with Obatoclax + Crizotinib (first compound 0.03162 µM), 0.668; in the test with Obatoclax + Crizotinib (first compound 0.1 µM), 0.561; with Obatoclax + Crizotinib (first compound 0.3162 µM) it was 0.498. In addition, in the test with Obatoclax + Crizotinib (first compound 1 µM), the relative viability worked out at 0.323.
